Data set [1] addresses T1, Human SQOR (Homo sapiens, UniProt Q9Y6N5).
T1 construct: made in house
Conditions: cited from earlier work.

The conditions of data set [2]: cited from earlier work.
The nature of data set [3]: pKa and nucleophilicity of LMW persulfides by pH-dependence of reaction rates with mBrB (stopped-flow fluorescence). The note with it: for ΔpKa: analog thiol pKa minus persulfide pKa; for pKa, Persulfide / kind with mBrB, Persulfide: I = 0.15, 25 °C, this work; for kind with mBrB, Persulfide: pH-independent rate constant.
For data set [4] the following is noted: cited from earlier work; for kind with mBrB, Analog thiol: pH-independent rate constant of analog thiol.
Data set [5] addresses T1, Human SQOR. In kind it is biochemical. Conditions: neutral pH. As to the method: The acidity of the persulfidated SQOR was evaluated by the pH-dependence of the steady-state rates. For enzymes that catalyze reactions with one substrate, the kinetic parameter kcat/Km (specificity constant) is an apparent second-order rate constant that reports on the properties of the free enzyme and the free substrate ([32]). kcat/Km can be calculated from the kinetic parameters kcat and Km obtained from typical Michaelis–Menten analysis (Equation 1). […]
SQOR uses three substrates: H2S, a sulfur acceptor (Acc^−), and CoQ (Fig. 1A). At saturating concentrations of H2S and CoQ, the kcat/Km^Acc- represents the apparent rate constant for the reaction between the sulfur acceptor and the Cys379SSH of the bis-persulfidated SQOR, and its pH-dependency reports on the pKa of both free species. Although the pH dependence of human SQOR activity has been reported ([25]), the pH dependence of kcat/Km is unavailable. The steady-state rate of SQOR was determined by monitoring the reduction of coenzyme Q1 (CoQ1) at 278 nm at varying pH at 25 °C. […]. Therefore, in the experiments with cyanide, the reactions were started with cyanide instead of SQOR so that the contribution of SQOR with H2S alone could be subtracted.
In experiments with sulfite, steady-state time courses with varying concentrations of sulfite (0.01–8 mM) were recorded, and linear functions were fitted to the first 15 to 40 s following SQOR addition (Fig. 3A). The slope before SQOR addition was subtracted to correct for the background nonenzymatic reduction of CoQ1, which was minimal. From the hyperbolic fit of the activity versus sulfite concentration plot (Fig. 3B), the kinetic parameters kcat^sulfite and Km^sulfite were obtained, and the kcat/Km^sulfite for each pH were calculated. As expected, when the kcat/Km^sulfite were plotted against pH, a bell-shaped profile was obtained (Fig. 3C), consistent with a reaction between a deprotonated species and a protonated one. An equation with two pKa was fitted to the data (Equation 3), assuming that deprotonated sulfite and protonated SQOR persulfide were the reacting species. […]. […]
The steady-state rates were obtained from linear fits to the data during the first 4 to 20 s following cyanide addition, and the slopes before cyanide addition were subtracted. The kcat/Km^cyanide at each pH was calculated according to Equation 2 using the enzyme (50 nM) and cyanide (90 μM) initial concentrations. […]
Human SQOR was expressed and purified as reported previously ([24], [25]). SQOR concentration was determined from the FAD absorbance at 450 nm, using ε = 11,500 M^−1 cm^−1 ([25]). […]
The activity of SQOR was measured at different pHs in a temperature-controlled spectrophotometer (Shimadzu UV-2600 or UV-1900i). […]

The next data set concerns the target Cys248 (UniProt position 248, PLIATCRKGVT). The note with it: cited from earlier work.
A further data set has as its target TST thiol (Homo sapiens, UniProt Q16762). As to the method:
The pH-dependency of the reaction rates of TST persulfide with sulfur acceptors and of TST thiol with thiosulfate were studied by following changes in the intrinsic fluorescence (λex = 295 nm, US 360 nm bandpass filter) in the stopped-flow spectrofluorimeter.
To prepare TST thiol, ∼ 100 μM thiosulfate was added to TST stocks ( ∼ 20 μM) at room temperature. After 15 min, ∼ 200 μM cyanide was added and left to react for 10 min. The remaining LMW compounds were removed with a PD MidiTrap G-25 column equilibrated with 10 mM Tris buffer, pH 8.5. The TST thiol was diluted in ultrapure water (1.8–2.0 μM) in one of the stopped-flow syringes and reacted with thiosulfate (400 μM) prepared in the other syringe in either acetic/MES/Tris buffer 2× (pH 3.68–8.75) or in ACES/Tris/ethanolamine buffer 2× (pH 6.68–10.34), at 25 °C. The final concentrations were halved as a result of the symmetrical stopped-flow mixing. The decrease in the intrinsic fluorescence caused by persulfide formation was recorded during 0.8 to 200 s depending on the time course, and the final pH was measured.

The subject of the next data set is bovine TST. Conditions: cited from earlier work.
[6] abbreviates: forms as drawn in Table 1 (ammonium form for CysOMeSSH).

Read-outs that look alike come from different tables or passages of the source. Marks after values point to notes of the source that are not given here.

Chain of TST thiol (Q16762 whole entry): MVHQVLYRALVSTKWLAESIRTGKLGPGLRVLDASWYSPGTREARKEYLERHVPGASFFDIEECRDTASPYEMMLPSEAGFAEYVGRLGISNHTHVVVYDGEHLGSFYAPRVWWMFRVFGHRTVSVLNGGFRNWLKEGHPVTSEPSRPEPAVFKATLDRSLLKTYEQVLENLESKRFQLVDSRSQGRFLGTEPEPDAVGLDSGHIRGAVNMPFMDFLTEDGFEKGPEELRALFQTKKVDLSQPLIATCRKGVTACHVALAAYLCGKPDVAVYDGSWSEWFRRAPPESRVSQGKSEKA
T1 sequence (Q9Y6N5 whole entry): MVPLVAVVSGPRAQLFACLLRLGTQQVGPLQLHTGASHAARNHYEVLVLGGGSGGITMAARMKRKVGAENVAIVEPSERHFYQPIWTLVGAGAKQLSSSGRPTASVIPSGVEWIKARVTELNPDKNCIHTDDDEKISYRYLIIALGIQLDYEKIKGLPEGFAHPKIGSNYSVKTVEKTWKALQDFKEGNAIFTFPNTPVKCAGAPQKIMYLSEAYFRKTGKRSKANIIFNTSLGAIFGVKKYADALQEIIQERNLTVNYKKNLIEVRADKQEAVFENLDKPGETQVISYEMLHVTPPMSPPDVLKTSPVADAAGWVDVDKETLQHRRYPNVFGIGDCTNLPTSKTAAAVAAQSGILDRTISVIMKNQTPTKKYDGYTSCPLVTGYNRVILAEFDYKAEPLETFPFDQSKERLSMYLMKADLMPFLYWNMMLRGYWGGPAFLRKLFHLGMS

Regarding `COC1=C(OC)C(=O)C(CC=C(C)C)=C(C)C1=O` [CoQ1, coenzyme Q1], at Human SQOR [1] (pH 7.5, read-out: Km^CoQ1), the Michaelis constant (Km) (as a rule, the substrate concentration at which the rate is half of its maximum) was 19 µM.

Regarding `CC(C)c1ccccc1` [Cumene], the “pKa, Analog thiol” value in data set [2] (analog thiol of the persulfide, predicted value based on similar thiols) is listed as >10 ^h. For the same molecule, the “pKa, Persulfide” value in data set [2] is on record as 7.0 ^g. Moreover, the ΔpKa in data set [3] is listed as >3.

As to `COC(=O)[C@@H](N)CSS` [CysOMeSS^−, cysteine methyl ester persulfide], the “pKa, Persulfide” value in data set [3] (setting [6]) is reported as 4.6 ± 0.1 ^a; in data set [3] (second pKa of two-pKa fit, amino (NH2) form of CysOMeSSH) it was 6.3 ± 0.6 ^a. Moreover, the ΔpKa in data set [3] is on record as 2.8; in data set [3] (amino (NH2) form of CysOMeSSH), 2.6. Further, the “kind with mBrB, Persulfide” value is reported as 3.8 ± 0.4 ^a × 10^3 M^−1 s^−1 in data set [3] and 5.4 ± 0.8 ^a × 10^3 M^−1 s^−1 in data set [3] (amino (NH2) form of CysOMeSSH).

Regarding `N[C@@H](CSS)C(=O)O` [CysSS^−, cysteine persulfide], the “pKa, Persulfide” value in data set [3] (setting [6]) is listed as 5.2 ± 0.1 ^a. Also, in data set [3], the ΔpKa turned out to be 3.1 and the “kind with mBrB, Persulfide” value was 3.2 ± 0.1 ^a × 10^3 M^−1 s^−1. In addition, the “pH-independent second-order rate constant, kind, with mBrB” value in data set [3] (persulfide, 25 °C) is given as “(3.2 ± 0.1) × 10^3 M^−1 s^−1”.

On to `NCCSS` [CystSS^−, cysteamine persulfide], for which, in data set [3] (setting [6]), the “pKa, Persulfide” value was 4.87 ± 0.09 ^a. Besides, in data set [3], the “kind with mBrB, Persulfide” value was 3.9 ± 0.2 ^a × 10^3 M^−1 s^−1.

On to `COC(=O)[C@@H](N)CS` [Cysteine methyl ester], for which the “pKa, Analog thiol” value in data set [2] (analog thiol, amino (NH2) form) is 8.88 ^b; in data set [2] (analog thiol, ammonium form), 7.44 ^b. Besides, the “pKa of the ammonium group” value in data set [2] (listed as CysOMeSH) is recorded as 6.88; in data set [2] (listed as CysOMeS^−), 8.32.

As to `N[C@@H](CS)C(=O)O` [Cysteine], in data set [4], the “kind with mBrB, Analog thiol” value is reported as 105 ^d M^−1 s^−1. Besides, in data set [2] (analog thiol), the “pKa, Analog thiol” value was 8.29 ^d.

Take `N[C@@H](CCC(=O)N[C@@H](CSS)C(=O)NCC(=O)O)C(=O)O` [GSS^−, glutathione persulfide]: the “pKa, Persulfide” value in data set [4] (I = 0.15, 25 °C) is listed as 5.45 ± 0.03 ^e. Further, the “kind with mBrB, Persulfide” value in data set [4] (pH-independent rate constant, I = 0.15, 25 °C) was 9.0 ± 0.2 ^e × 10^3 M^−1 s^−1. In data set [3], this molecule gave a ΔpKa of 3.49.

Regarding `N[C@@H](CCC(=O)N[C@@H](CS)C(=O)NCC(=O)O)C(=O)O` [Glutathione, glutathione], in data set [4], the “kind with mBrB, Analog thiol” value was 208 ^d M^−1 s^−1. Besides, the Michaelis-Menten constant (Km) at Human SQOR [1] (pH 7.4, read-out: Km^GSH) was 8000 µM. In addition, in data set [2] (analog thiol), the “pKa, Analog thiol” value is 8.94 ^d. For the same molecule, the results for the “pKa of the glycyl carboxylic acid” value in data set [2] (neutral variant of GSH) and in data set [2] (positive variant of GSH) were 3.36 and 3.12, respectively.

Turning to `NC(CCSS)C(=O)O` (stereo not drawn) [HcySS^−, homocysteine persulfide], the “kind with mBrB, Persulfide” value in data set [3] is listed as 5.4 ± 0.1 ^a × 10^3 M^−1 s^−1.

Turning to `NC(CCS)C(=O)O` (stereo not drawn) [Homocysteine], the “pKa, Analog thiol” value in data set [2] (analog thiol) is 9.1 ^d.

`S` [Persulfide H2S, hydrogen sulfide]: the Km is 350 µM on Human SQOR [1] (pH 7.4, H2S as sulfur acceptor, read-out: Km^H2S (Acceptor)) and 13 µM on Human SQOR [1] (pH 7.5, first step of catalysis, read-out: Km^H2S (Donor)).

As to `Cl` [chloride], the “increase of apparent Km^sulfite” value on Human SQOR [5] (in the presence of 120 mM chloride versus absence) is ~20 fold. Further, the inhibition constant (Ki) (commonly a dissociation constant, usually derived from enzyme kinetics or from competition with a known ligand) on Human SQOR [5] (sulfite as sulfur acceptor, read-out: Ki (estimated), reversible competitive inhibition versus sulfite) was ~7.4 mM.

In the case of `OCCSS` [β-MESS^−, β-mercaptoethanol persulfide], the “pKa, Persulfide” value in data set [3] (setting [6]) was 5.8 ± 0.1 ^a. For the same molecule, in data set [3], the ΔpKa is listed as 3.8 and the “kind with mBrB, Persulfide” value is 7.5 ± 0.4 ^a × 10^3 M^−1 s^−1.

Regarding `OCCS` [β-Mercaptoethanol], the “kind with mBrB, Analog thiol” value in data set [4] is 519 ^d M^−1 s^−1. For the same molecule, the “pKa, Analog thiol” value in data set [2] (analog thiol) is listed as 9.6 ^d.

Consider “Thiosulfate sulfurtransferase (rhodanese), bovine liver (Bos taurus)”, for which the figures for the pKa with Cys248 (free enzyme thiol ('the thiol alone')), in the data set with Cys248 (thiol in complex with substrate analogs) and in the data set with Cys248 (thiol in complex with thiosulfate) were 7.8, 6.75 to 7.05 and 6.5, respectively.

B1: TST thiol (protein, UniProt Q16762 2-297, looked up)
Thiosulfate sulfurtransferase: VHQVLYRALVSTKWLAESIRTGKLGPGLRVLDASWYSPGTREARKEYLERHVPGASFFDIEECRDTASPYEMMLPSEAGFAEYVGRLGISNHTHVVVYDGEHLGSFYAPRVWWMFRVFGHRTVSVLNGGFRNWLKEGHPVTSEPSRPEPAVFKATLDRSLLKTYEQVLENLESKRFQLVDSRSQGRFLGTEPEPDAVGLDSGHIRGAVNMPFMDFLTEDGFEKGPEELRALFQTKKVDLSQPLIATCRKGVTACHVALAAYLCGKPDVAVYDGSWSEWFRRAPPESRVSQGKSEKA
modifications: active-site cysteine thiol
For B1, in the data set with TST thiol, the “pH-independent rate constant, Cyanide” value is given as “No reaction”; the “pH-independent rate constant, Sulfite” value was “No reaction”; the “second-order rate constant with thiosulfate” value is ~30000 M⁻¹ s⁻¹. Also, in the data set with TST thiol (pH 6.68), the “pKa of the decrease in kobs at alkaline pH” value is listed as ~10.

B2: bovine TST: bovine thiosulfate sulfurtransferase (rhodanese), literature values (protein, UniProt P00586 2-297, looked up)
Thiosulfate sulfurtransferase: VHQVLYRALVSTKWLAESVRAGKVGPGLRVLDASWYSPGTREARKEYLERHVPGASFFDIEECRDKASPYEVMLPSEAGFADYVGSLGISNDTHVVVYDGDDLGSFYAPRVWWMFRVFGHRTVSVLNGGFRNWLKEGHPVTSEPSRPEPAIFKATLNRSLLKTYEQVLENLESKRFQLVDSRAQGRYLGTQPEPDAVGLDSGHIRGSVNMPFMNFLTEDGFEKSPEELRAMFEAKKVDLTKPLIATCRKGVTACHIALAAYLCGKPDVAIYDGSWFEWFHRAPPETWVSQGKGGKA
For B2, the “pKa of the thiol alone” value in the data set with bovine TST (bovine TST) is reported as 7.8. In the data set with bovine TST, the “pKa of the thiol in complex with substrate analogs” value is 6.75 to 7.05 and the “pKa of the thiol in complex with thiosulfate” value was 6.5.

The record behind these values is paper PMC11039317, “Acidity of persulfides and its modulation by the protein environments in sulfide quinone oxidoreductase and thiosulfate sulfurtransferase” (The Journal of Biological Chemistry, 2024).
